Laboratory results from article PMC9523973 (Cell reports, 2022).
“Also recorded” adds a separate entry of the source. Where two headings read alike, the source gives them in different places.

Experiments:
[1] = system: endogenously expressed NaVs in cultured DRG neurons; assay: Whole cell voltage clamp of sodium current; type: cell-based, mouse; settings: for IC50: read-out: IC50 of DRG INa inhibition
[2] = target: human NaV1.7 (Homo sapiens, UniProt Q15858); assay: Voltage clamp of expressed WT NaV1.7 INa
human NaV1.7, sequence (Q15858 whole entry): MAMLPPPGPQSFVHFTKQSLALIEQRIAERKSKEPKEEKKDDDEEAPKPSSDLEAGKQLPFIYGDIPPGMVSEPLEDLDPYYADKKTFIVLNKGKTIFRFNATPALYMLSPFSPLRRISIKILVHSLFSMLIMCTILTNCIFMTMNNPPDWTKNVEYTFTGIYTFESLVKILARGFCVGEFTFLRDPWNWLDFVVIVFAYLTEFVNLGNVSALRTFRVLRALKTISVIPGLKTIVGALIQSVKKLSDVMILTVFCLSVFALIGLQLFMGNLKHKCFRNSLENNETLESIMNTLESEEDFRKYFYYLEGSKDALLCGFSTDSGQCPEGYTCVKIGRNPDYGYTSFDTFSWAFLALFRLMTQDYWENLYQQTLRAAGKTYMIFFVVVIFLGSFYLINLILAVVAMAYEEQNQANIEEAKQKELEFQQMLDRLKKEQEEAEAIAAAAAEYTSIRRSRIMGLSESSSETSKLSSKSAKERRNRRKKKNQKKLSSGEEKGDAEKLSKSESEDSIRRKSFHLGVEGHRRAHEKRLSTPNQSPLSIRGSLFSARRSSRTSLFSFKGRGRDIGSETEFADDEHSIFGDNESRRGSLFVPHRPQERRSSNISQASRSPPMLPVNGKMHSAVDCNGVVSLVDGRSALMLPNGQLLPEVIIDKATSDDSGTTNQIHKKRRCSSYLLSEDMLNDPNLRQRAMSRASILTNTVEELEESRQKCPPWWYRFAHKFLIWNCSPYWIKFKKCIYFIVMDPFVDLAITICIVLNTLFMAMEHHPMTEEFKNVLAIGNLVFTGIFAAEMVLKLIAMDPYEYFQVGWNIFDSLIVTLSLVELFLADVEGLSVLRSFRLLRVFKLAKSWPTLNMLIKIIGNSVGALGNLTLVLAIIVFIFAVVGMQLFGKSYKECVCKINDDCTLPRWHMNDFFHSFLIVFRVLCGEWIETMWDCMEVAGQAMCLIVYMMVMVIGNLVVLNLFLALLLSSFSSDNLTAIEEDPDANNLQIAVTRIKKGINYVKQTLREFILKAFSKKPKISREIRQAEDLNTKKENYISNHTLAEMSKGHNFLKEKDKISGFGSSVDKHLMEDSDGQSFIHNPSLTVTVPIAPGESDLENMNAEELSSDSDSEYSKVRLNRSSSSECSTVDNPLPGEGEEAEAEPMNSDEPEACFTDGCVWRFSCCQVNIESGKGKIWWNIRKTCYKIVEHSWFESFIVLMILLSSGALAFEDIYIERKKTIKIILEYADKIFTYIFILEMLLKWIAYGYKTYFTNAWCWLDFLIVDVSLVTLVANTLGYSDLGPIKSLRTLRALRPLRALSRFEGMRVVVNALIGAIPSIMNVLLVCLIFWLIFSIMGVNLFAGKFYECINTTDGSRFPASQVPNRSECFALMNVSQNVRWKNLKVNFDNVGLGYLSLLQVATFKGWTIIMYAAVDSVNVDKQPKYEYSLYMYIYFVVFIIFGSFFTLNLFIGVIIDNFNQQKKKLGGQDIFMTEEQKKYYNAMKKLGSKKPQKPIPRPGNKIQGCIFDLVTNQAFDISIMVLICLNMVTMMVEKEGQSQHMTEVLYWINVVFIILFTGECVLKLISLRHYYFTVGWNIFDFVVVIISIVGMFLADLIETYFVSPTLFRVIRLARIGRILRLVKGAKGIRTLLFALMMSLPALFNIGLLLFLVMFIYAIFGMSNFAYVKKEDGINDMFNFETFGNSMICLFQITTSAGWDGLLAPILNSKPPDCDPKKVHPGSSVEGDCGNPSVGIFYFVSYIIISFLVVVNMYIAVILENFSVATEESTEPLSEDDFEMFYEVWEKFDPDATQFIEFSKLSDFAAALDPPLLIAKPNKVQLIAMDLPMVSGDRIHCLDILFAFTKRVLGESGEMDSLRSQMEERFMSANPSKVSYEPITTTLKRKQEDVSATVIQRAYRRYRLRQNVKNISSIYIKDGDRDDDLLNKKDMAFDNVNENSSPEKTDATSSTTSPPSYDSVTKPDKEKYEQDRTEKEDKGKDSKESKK
human NaV1.7, sequence (Q07699 19-218 partner): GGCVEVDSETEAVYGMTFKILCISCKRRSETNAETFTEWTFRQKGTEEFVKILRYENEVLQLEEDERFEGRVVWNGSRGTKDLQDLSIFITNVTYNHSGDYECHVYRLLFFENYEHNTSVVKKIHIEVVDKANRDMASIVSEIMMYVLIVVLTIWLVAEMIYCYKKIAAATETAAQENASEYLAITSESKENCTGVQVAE

[3] = target: human NaV1.7 tamoxifen receptor (Homo sapiens, UniProt Q15858); assay: NaV1.7 tritium-labeled tamoxifen competitive binding assay; settings: competition with H^3-Tam
human NaV1.7 tamoxifen receptor, sequence (Q15858 whole entry): as the sequence (Q15858 whole entry) above

[4] = system: NaV1.7 DII S969A and DIV D1761A; type: cell-based, human; settings: vs WT NaV1.7
[5] = target: NaV1.7 D1458A (Homo sapiens, UniProt Q15858, D1458A); assay: Voltage clamp of NaV1.7 alanine substitution in domain III; type: cell-based; settings: vs WT NaV1.7
NaV1.7 D1458A, sequence (Q15858 whole entry D1458A, the tested form may be a part): as the sequence (Q15858 whole entry) above, with D1458A counted along it
NaV1.7 D1458A, sequence (Q07699 19-218 partner): as the sequence (Q07699 19-218 partner) above

[6] = target: NaV1.7 S969A:D1761A double mutant (Homo sapiens, UniProt Q15858, E1761A/S969A); type: cell-based; settings: read-out: IC50 of INa inhibition, S969A:D1761A double mutant channels
NaV1.7 S969A:D1761A double mutant (Homo sapiens, UniProt Q15858, E1761A/S969A), sequence (Q15858 whole entry S969A/E1761A): as the sequence (Q15858 whole entry) above, with S969A, E1761A counted along it
NaV1.7 S969A:D1761A double mutant (Homo sapiens, UniProt Q15858, E1761A/S969A), sequence (Q07699 19-218 partner): as the sequence (Q07699 19-218 partner) above

[7] = system: NaV1.7 S969A:D1761A double mutant; type: cell-based, human
[8] = system: NaV1.7 F1748A and Y1755A; assay: Voltage clamp of NaV1.7 local anesthetic binding site mutations; type: cell-based, human; settings: vs WT NaV1.7
[9] = system: DRG action potentials; assay: Current clamp recording of cultured DRG neuron action potentials; type: cell-based, mouse
[10] = system: knee hyperalgesia in mice after DMM surgery; assay: In vivo osteoarthritis pain model; set-up: species or system mouse; settings: for knee hyperalgesia vs vehicle, 30 minutes after injection / knee withdrawal threshold vs vehicle through 3 hours: 50 μM intra-articular in 0.1% DMSO
[11] = system: knee hyperalgesia in mice after DMM surgery; settings: 20 mg/kg, ~0.85M, ref Miller et al., 2018; cited from earlier work

With CC/C(=C(\c1ccc(O)cc1)c1ccc(OCCN(C)C)cc1)c1ccccc1 [4OH-Tam, 4-hydroxy tamoxifen] the “inhibition of DRG neuron INa (in words)” value [1] was “inhibit DRG neuron INa” and the “Hill slope coefficient of NaV1.7 INa inhibition” value [2] was 1.9.
For “4-hydroxy-N-desmethyl benzophenone [4OH-ND-BP]”, the “binding to NaV1.7 (in words)” value [3] was “specific binding”.
For CC/C(=C(\c1ccccc1)c1ccc(OCCNC)cc1)c1ccccc1 [ND-Tam, N-desmethyl tamoxifen], the “inhibition of DRG neuron INa (in words)” value [1] was “inhibit DRG neuron INa”, the “frequency dependence of DRG INa inhibition” value ([1]; 300 nM at 0.1, 10 and 20 Hz) was “enhanced current inhibition at greater depolarization frequencies” and the “block of the total INa” value ([1]; 1 μM) was “≈ 45%”. For the same compound, the “change in half-maximal activation of conductance (GV1/2)” value ([1]; 1 μM) was “no change”, the “voltage-dependence of inactivation after drug treatment” value ([1]; 1 μM) was −51.9 ± 0.4 mV and the “half-maximal conductance-voltage relationship (V1/2)” value ([1]; 1 μM ND-Tam conditions) was −37.7 ± 0.4 mV. For the same compound, the IC50 ([1]; −40 mV holding potential) was 3.9 nM, the IC50 ([1]; −60 mV holding potential) was 112 nM and the “INa that did not recover after removing drug from the bath” value ([1]; waiting 5 minutes after removal) was 86 ± 5%. The “reduced potency of INa inhibition” value [4] was 3–7 times, the “change in potency or slope” value [5] was “no change in potency or slope” and the IC50 [6] was 36000 nM. The “potency reduction compared to WT NaV1.7” value [7] was “more than 21 times”, the “change in ND-Tam potency” value [8] was “little change” and the “impact on the resting membrane potential” value ([9]; 100 nM, spontaneously firing neurons) was “insignificant impact”. The “reduction of the frequency of spontaneous action potentials” value ([9]; 100 nM, three-minute extracellular application, no current injected) was 91%, the “inhibition of action potential frequency and peak amplitude after washout” value ([9]; control saline for 2 minutes after drug) was “persistent” and the “area under the curve analysis of the first 3.5 hours post injection” value ([10]; 0.5 μM, after 3rd daily injection, compared to lidocaine or vehicle) was “superior efficacy”. For the same compound, the “knee hyperalgesia vs vehicle” value ([10]; 50 μM (~0.002 mg/kg) intra-articular, vehicle 50% EtOH, 4 weeks after DMM, 30 minutes after injection) was “rapidly inhibited knee hyperalgesia pain; also recorded: provided relief from hyperalgesia”, the “knee hyperalgesia vs vehicle, 30 minutes after injection” value ([10]; 4 weeks after DMM) was “effectively inhibited knee hyperalgesia” and the “knee withdrawal threshold vs vehicle through 3 hours” value ([10]; 4 weeks after DMM) was “remained elevated compared to vehicle control”. The “Hill slope coefficient of NaV1.7 INa inhibition” value [2] was 2.2 and the IC50 ([2]; read-out: IC50 of INa inhibition, WT NaV1.7) was 1700 nM.
For O=C(c1ccccc1)c1ccc(O)cc1 [4OH-BP, 4-hydroxy benzophenone], the “binding to NaV1.7 (in words)” value [3] was “specific binding”.
In the case of CCN(CC)CC(=O)Nc1c(C)cccc1C [lidocaine, reference compound], the “knee hyperalgesia vs vehicle, 30 minutes after injection” value ([10]; 4 weeks after DMM) is listed as “effectively inhibited knee hyperalgesia”, the “knee withdrawal threshold vs vehicle through 3 hours” value ([10]; 4 weeks after DMM) is listed as “remained elevated compared to vehicle control” and the “knee hyperalgesia after local injection of a high dose” value [11] is listed as “able to acutely reverse knee hyperalgesia”.
In the case of C=C(C)[C@@H]1CCC(C)=C[C@H]1c1c(O)cc(CCCCC)cc1O [CBD, cannabidiol, reference compound], the “knee hyperalgesia vs vehicle, 30 minutes after injection” value ([10]; 4 weeks after DMM) is reported as “effectively inhibited knee hyperalgesia” and the “knee withdrawal threshold vs vehicle through 3 hours” value ([10]; 4 weeks after DMM) is reported as “remained elevated compared to vehicle control”.
For CNCCOc1ccccc1 [NM2P, N-methyl 2 phenoxyethanamine], the “binding to NaV1.7 (in words)” value [3] was “specific binding”.
